Data as given in patent publication US20250051344A1, “BIFUNCTIONAL SELECTIVE DEGRADERS OF SMARCA2 AND THERAPEUTIC USES THEREOF” (Nurix Therapeutics, Inc., priority 2023, published 2025).

Experiments:
SMARCA2 = biological target: T1, SMARCA2 (Homo sapiens, UniProt P51531); test: SMARCA2 Cellular Degradation Assay (Western blot analysis on Jess platform); assay type: cell-based; details: for DC50 / Dmax: cellular degradation; for Fold Selectivity SMARCA4/2: ratio DC50 SMARCA4 / DC50 SMARCA2
T1 construct: endogenous in cells
Outline: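 Cells recovered from tumors are lysed, cleared at 20,817×g, and protein is quantified by BCA. Equal protein (5 μg) is then probed on Jess for SMARCA2 and actin, and normalized SMARCA2 signal is reported against vehicle.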

SMARCA4 = biological target: T2, SMARCA4 (Homo sapiens, UniProt P51532); test: Cellular degradation assay, SMARCA4 (Table 1); assay type: cell-based
T2 construct: endogenous in cells
T2 sequence (P51532 whole entry, species assumed): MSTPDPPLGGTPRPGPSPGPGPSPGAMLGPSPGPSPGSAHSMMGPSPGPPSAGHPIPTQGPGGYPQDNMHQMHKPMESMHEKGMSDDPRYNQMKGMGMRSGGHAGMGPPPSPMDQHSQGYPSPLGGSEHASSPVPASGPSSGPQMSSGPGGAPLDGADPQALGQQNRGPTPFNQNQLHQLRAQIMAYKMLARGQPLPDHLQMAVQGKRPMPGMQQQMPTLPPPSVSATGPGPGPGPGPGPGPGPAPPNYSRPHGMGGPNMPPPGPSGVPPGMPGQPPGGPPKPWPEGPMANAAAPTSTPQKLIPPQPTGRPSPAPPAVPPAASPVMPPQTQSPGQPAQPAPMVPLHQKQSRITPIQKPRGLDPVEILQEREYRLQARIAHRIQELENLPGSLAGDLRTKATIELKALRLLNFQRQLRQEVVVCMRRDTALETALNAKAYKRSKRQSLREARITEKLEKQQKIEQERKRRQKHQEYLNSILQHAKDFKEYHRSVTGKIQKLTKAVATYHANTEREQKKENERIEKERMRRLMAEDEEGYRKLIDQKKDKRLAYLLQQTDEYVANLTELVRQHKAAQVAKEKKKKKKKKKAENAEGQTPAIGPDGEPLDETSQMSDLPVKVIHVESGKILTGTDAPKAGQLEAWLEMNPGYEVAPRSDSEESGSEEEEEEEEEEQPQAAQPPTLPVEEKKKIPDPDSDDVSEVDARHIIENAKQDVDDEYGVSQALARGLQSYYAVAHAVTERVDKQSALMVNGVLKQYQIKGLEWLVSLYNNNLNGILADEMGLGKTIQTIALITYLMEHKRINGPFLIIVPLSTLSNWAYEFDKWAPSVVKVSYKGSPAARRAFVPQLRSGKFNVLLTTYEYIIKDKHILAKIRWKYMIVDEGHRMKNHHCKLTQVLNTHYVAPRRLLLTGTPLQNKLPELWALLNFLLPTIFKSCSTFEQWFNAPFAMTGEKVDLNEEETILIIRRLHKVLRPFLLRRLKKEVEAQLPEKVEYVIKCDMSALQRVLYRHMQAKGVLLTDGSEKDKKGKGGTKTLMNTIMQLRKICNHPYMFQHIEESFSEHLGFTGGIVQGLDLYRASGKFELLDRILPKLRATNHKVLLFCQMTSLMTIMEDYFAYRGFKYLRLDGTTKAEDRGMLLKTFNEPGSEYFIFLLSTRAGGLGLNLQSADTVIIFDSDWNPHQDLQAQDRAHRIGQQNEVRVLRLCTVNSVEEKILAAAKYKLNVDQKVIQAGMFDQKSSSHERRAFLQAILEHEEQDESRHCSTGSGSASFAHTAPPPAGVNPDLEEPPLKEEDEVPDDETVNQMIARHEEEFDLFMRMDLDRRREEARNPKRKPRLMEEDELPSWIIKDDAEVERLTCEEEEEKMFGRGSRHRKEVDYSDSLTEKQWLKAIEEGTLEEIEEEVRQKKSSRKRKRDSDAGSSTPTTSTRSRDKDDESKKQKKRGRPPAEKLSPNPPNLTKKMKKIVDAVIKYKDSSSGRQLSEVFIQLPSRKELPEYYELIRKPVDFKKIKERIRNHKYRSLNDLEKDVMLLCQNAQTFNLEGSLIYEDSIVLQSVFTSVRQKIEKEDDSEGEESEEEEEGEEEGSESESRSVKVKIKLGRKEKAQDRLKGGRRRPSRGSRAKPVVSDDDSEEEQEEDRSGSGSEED

T1 sequence (P51531 whole entry, species assumed): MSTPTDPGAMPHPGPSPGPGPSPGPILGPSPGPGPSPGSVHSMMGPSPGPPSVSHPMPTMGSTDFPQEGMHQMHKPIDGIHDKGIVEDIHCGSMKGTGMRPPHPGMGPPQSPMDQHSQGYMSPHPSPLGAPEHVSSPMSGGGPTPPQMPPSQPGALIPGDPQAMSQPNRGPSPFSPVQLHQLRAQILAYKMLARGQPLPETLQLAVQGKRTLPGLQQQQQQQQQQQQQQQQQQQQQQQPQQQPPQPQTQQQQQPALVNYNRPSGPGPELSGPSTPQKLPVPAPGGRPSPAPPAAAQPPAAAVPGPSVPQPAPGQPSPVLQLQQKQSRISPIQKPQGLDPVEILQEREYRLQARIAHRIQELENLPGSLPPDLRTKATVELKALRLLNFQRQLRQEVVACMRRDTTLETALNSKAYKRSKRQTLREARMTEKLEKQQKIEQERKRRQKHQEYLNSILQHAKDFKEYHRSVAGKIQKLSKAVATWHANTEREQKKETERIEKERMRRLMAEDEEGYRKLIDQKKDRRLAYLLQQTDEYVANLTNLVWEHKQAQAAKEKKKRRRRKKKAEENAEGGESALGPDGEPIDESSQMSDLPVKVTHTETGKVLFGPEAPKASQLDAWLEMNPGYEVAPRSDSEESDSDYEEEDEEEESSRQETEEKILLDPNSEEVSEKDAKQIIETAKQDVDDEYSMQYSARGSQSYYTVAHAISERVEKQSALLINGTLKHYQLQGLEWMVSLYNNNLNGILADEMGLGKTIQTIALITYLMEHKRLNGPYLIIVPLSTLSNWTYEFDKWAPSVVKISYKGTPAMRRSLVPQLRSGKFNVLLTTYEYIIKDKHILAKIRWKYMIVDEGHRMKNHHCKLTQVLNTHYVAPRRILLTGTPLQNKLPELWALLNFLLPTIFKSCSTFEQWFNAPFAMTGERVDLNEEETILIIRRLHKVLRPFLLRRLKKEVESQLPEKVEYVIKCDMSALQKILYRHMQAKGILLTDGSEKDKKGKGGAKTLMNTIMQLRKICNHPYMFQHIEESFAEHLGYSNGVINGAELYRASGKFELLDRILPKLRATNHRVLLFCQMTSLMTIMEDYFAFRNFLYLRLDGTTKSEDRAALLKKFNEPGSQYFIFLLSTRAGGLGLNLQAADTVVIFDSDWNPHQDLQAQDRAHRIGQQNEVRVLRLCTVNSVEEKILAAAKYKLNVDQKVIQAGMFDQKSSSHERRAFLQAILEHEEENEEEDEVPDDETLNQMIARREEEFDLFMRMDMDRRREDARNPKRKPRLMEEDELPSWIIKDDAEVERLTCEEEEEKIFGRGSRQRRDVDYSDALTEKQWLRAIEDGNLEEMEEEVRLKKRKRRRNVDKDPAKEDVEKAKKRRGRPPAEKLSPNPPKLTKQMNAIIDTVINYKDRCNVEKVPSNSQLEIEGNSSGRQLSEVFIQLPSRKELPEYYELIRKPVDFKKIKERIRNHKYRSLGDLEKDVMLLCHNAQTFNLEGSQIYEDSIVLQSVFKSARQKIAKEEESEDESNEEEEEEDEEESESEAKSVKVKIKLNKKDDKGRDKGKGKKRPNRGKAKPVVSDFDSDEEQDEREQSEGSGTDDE

Compound | DC50 (SMARCA2) | Dmax (SMARCA2) | Fold Selectivity SMARCA4/2 (SMARCA2) | Dmax (SMARCA4) | DC50 (SMARCA4)
Cc1ccnn1C1(C(=O)N(C)C2CCN(CCC3CCN(c4ccc([C@H]5CCC(=O)NC5=O)cc4)CC3)CC2)CCN(c2cnnc(-c3ccccc3O)c2)CC1 (racemic) [Example 78, rac-N-{1-[2-(1-{4-[(3R)-2,6-dioxopiperidin-3-yl]phenyl}piperidin-4-yl)ethyl]piperidin-4-yl}-1-[6-(2-hydroxyphenyl)pyridazin-4-yl]-N-methyl-4-(5-methyl-1H-pyrazol-1-yl)piperidine-4-carboxamide] | 5.1 nM | 85.8% | 1961 | 37.4% | 
CC(C)c1cc(C2(C(=O)N3CC4(CN(CCC5CCN(c6ccc(C7CCC(=O)NC7=O)cc6)CC5)C4)C3)CCN(c3cnnc(-c4ccccc4O)c3)CC2)no1 (racemic) [Example 79, rac-(3R)-3-(4-{4-[2-(6-{1-[6-(2-hydroxyphenyl)pyridazin-4-yl]-4-[5-(propan-2-yl)-1,2-oxazol-3-yl]piperidine-4-carbonyl}-2,6-diazaspiro[3.3]heptan-2-yl)ethyl]piperidin-1-yl}phenyl)piperidine-2,6-dione] | 12.4 nM | 70.7% | 806 | 21.9% | 
O=C1CCC(c2ccc(N3CCC(CCN4CC5(C4)CN(C(=O)C4(c6cc7ccccn7n6)CCN(c6cnnc(-c7ccccc7O)c6)CC4)C5)CC3)cc2)C(=O)N1 (racemic) [Example 80, rac-(3R)-3-(4-{4-[2-(6-{1-[6-(2-hydroxyphenyl)pyridazin-4-yl]-4-{pyrazolo[1,5-a]pyridin-2-yl}piperidine-4-carbonyl}-2,6-diazaspiro[3.3]heptan-2-yl)ethyl]piperidin-1-yl}phenyl)piperidine-2,6-dione] | 14.2 nM | 60% | 705 | 21.9% | 
COC1(C(=O)N2CC3(CN(CCC4CCN(c5ccc(C6CCC(=O)NC6=O)cc5)CC4)C3)C2)CCN(c2cnnc(-c3ccccc3O)c2)CC1 (racemic) [Example 82, rac-3-(4-(4-(2-(6-(1-(6-(2-hydroxyphenyl)pyridazin-4-yl)-4-methoxypiperidine-4-carbonyl)-2,6-diazaspiro[3.3]heptan-2-yl)ethyl)piperidin-1-yl)phenyl)piperidine-2,6-dione] | 11.3 nM | 71.2% | 883 | 23.8% | 
COC1(C(=O)NCC2(c3ccccc3)CCN(c3cnnc(-c4ccccc4O)c3)CC2)CCN(CCC2CCN(c3ccc([C@H]4CCC(=O)NC4=O)cc3)CC2)CC1 (racemic) [Example 83, rac-(r)-1-(2-(1-(4-(2,6-dioxopiperidin-3-yl)phenyl)piperidin-4-yl)ethyl)-n-((1-(6-(2-hydroxyphenyl)pyridazin-4-yl)-4-phenylpiperidin-4-yl)methyl)-4-methoxypiperidine-4-carboxamide] | 2.3 nM | 91.8% | 9 | 73.3% | 20.2 nM
O=C1CC[C@H](c2ccc(N3CCC(CCN4CCC(C(=O)NCC5(c6ccccc6)CCN(c6cnnc(-c7ccccc7O)c6)CC5)C5CC54)CC3)cc2)C(=O)N1 (mixture of isomers) [Example 84, rac-2-(2-(1-(4-((r)-2,6-dioxopiperidin-3-yl)phenyl)piperidin-4-yl)ethyl)-n-((1-(6-(2-hydroxyphenyl)pyridazin-4-yl)-4-phenylpiperidin-4-yl)methyl)-2-azabicyclo[4.1.0]heptane-5-carboxamide] | 4.23 nM | 89.5% | 11 | 61.9% | 46.5 nM
CC1(NC(=O)C2(c3ccccc3)CCN(c3cnnc(-c4ccccc4O)c3)CC2)CCN(C(=O)CN2CCC(c3ccc(N[C@@H]4CCC(=O)NC4=O)cc3)CC2)CC1 (racemic) [Example 86, rac-(r)-n-(1-(2-(4-(4-((2,6-dioxopiperidin-3-yl)amino)phenyl)piperidin-1-yl)acetyl)-4-methylpiperidin-4-yl)-1-(6-(2-hydroxyphenyl)pyridazin-4-yl)-4-phenylpiperidine-4-carboxamide] | 22.1 nM | 70.5% | 452 | 53.7% | 
CN(C(=O)C1(c2ccnn2C)CCN(c2cnnc(-c3ccccc3O)c2)CC1)C1CCN(CCC2CCN(c3ccc(C4CCC(=O)NC4=O)cc3)CC2)CC1 (racemic) [Example 87, rac-N-{1-[2-(1-{4-[(3r)-2,6-dioxopiperidin-3-yl]phenyl}piperidin-4-yl)ethyl]piperidin-4-yl}-1-[6-(2-hydroxyphenyl)pyridazin-4-yl]-N-methyl-4-(1-methyl-1H-pyrazol-5-yl)piperidine-4-carboxamide] | 2.79 nM | 87.7% | 3583 | 22.5% | 
Cc1cc(C2(C(=O)N(C)C3CCN(CCC4CCN(c5ccc(C6CCC(=O)NC6=O)cc5)CC4)CC3)CCN(c3cnnc(-c4ccccc4O)c3)CC2)on1 (racemic) [Example 88, rac-N-{1-[2-(1-{4-[(3R)-2,6-dioxopiperidin-3-yl]phenyl}piperidin-4-yl)ethyl]piperidin-4-yl}-1-[6-(2-hydroxyphenyl)pyridazin-4-yl]-N-methyl-4-(3-methyl-1,2-oxazol-5-yl)piperidine-4-carboxamide] | 7.76 nM | 78.4% | 1289 | 20.2% | 
CN(C(=O)C1(c2cnn(C)c2)CCN(c2cnnc(-c3ccccc3O)c2)CC1)C1CCN(CC2CCN(c3ccc(C4CCC(=O)NC4=O)cc3)CC2)CC1 (racemic) [Example 89, rac-N-{1-[(1-{4-[(3R)-2,6-dioxopiperidin-3-yl]phenyl}piperidin-4-yl)methyl]piperidin-4-yl}-1-[6-(2-hydroxyphenyl)pyridazin-4-yl]-N-methyl-4-(1-methyl-1H-pyrazol-4-yl)piperidine-4-carboxamide] | 3.8 nM | 82.1% | 2634 | 47.3% | 
Cc1cc(C2(C(=O)N(C)C3CCN(CC4CCN(c5ccc(C6CCC(=O)NC6=O)cc5)CC4)CC3)CCN(c3cnnc(-c4ccccc4O)c3)CC2)on1 (racemic) [Example 90, rac-N-{1-[(1-{4-[(3R)-2,6-dioxopiperidin-3-yl]phenyl}piperidin-4-yl)methyl]piperidin-4-yl}-1-[6-(2-hydroxyphenyl)pyridazin-4-yl]-N-methyl-4-(3-methyl-1,2-oxazol-5-yl)piperidine-4-carboxamide] | 8.55 nM | 76.5% | 1170 | 34.8% | 
CN(C(=O)C1(c2ccnn2C)CCN(c2cnnc(-c3ccccc3O)c2)CC1)C1CCN(CC2CCN(c3ccc(C4CCC(=O)NC4=O)cc3)CC2)CC1 (racemic) [Example 91, rac-N-{1-[(1-{4-[(3R)-2,6-dioxopiperidin-3-yl]phenyl}piperidin-4-yl)methyl]piperidin-4-yl}-1-[6-(2-hydroxyphenyl)pyridazin-4-yl]-N-methyl-4-(1-methyl-1H-pyrazol-5-yl)piperidine-4-carboxamide] | 4.52 nM | 79.8% | 2212 | 41.8% | 
CC(C)c1cc(C2(C(=O)N3CC4(CN(CC5CCN(c6ccc(C7CCC(=O)NC7=O)cc6)CC5)C4)C3)CCN(c3cnnc(-c4ccccc4O)c3)CC2)no1 (racemic) [Example 92, rac-(3R)-3-(4-{4-[(6-{1-[6-(2-hydroxyphenyl)pyridazin-4-yl]-4-[5-(propan-2-yl)-1,2-oxazol-3-yl]piperidine-4-carbonyl}-2,6-diazaspiro[3.3]heptan-2-yl)methyl]piperidin-1-yl}phenyl)piperidine-2,6-dione] | 4.81 nM | 80.8% | 19 | 50.2% | 92.5 nM
Cn1nccc1C1(C(=O)N2CC3(CN(CC4CCN(c5ccc(C6CCC(=O)NC6=O)cc5)CC4)C3)C2)CCN(c2cnnc(-c3ccccc3O)c2)CC1 (racemic) [Example 93, rac-(3R)-3-(4-{4-[(6-{1-[6-(2-hydroxyphenyl)pyridazin-4-yl]-4-(1-methyl-1H-pyrazol-5-yl)piperidine-4-carbonyl}-2,6-diazaspiro[3.3]heptan-2-yl)methyl]piperidin-1-yl}phenyl)piperidine-2,6-dione] | 21.1 nM | 69.8% | 474 | 33.8% | 
CN(C(=O)C1(c2cnn(C)c2)CCN(c2cnnc(-c3ccccc3O)c2)CC1)C1CCN(CCC2CCN(c3ccc(C4CCC(=O)NC4=O)cc3)CC2)CC1 (racemic) [Example 94, rac-N-{1-[2-(1-{4-[(3R)-2,6-dioxopiperidin-3-yl]phenyl}piperidin-4-yl)ethyl]piperidin-4-yl}-1-[6-(2-hydroxyphenyl)pyridazin-4-yl]-N-methyl-4-(1-methyl-1H-pyrazol-4-yl)piperidine-4-carboxamide] | 2.24 nM | 87.3% | 4454 | 33% | 
Cc1ccnn1C1(C(=O)N(C)C2CCN(CC3CCN(c4ccc(C5CCC(=O)NC5=O)cc4)CC3)CC2)CCN(c2cnnc(-c3ccccc3O)c2)CC1 (racemic) [Example 96, rac-N-{1-[(1-{4-[(3R)-2,6-dioxopiperidin-3-yl]phenyl}piperidin-4-yl)methyl]piperidin-4-yl}-1-[6-(2-hydroxyphenyl)pyridazin-4-yl]-N-methyl-4-(5-methyl-1H-pyrazol-1-yl)piperidine-4-carboxamide] | 4.3 nM | 87.1% | 9 | 60% | 39.6 nM
CN(C(=O)C1(c2cc3ccccn3n2)CCN(c2cnnc(-c3ccccc3O)c2)CC1)C1CCN(CC2CCN(c3ccc(C4CCC(=O)NC4=O)cc3)CC2)CC1 (racemic) [Example 97, rac-N-{1-[(1-{4-[(3R)-2,6-dioxopiperidin-3-yl]phenyl}piperidin-4-yl)methyl]piperidin-4-yl}-1-[6-(2-hydroxyphenyl)pyridazin-4-yl]-N-methyl-4-{pyrazolo[1,5-a]pyridin-2-yl}piperidine-4-carboxamide] | 3.14 nM | 86.6% | 7 | 65.8% | 20.7 nM
